Key:
[1] = test system: B6D2F1 and CF-1 mouse oocytes
Experimental: (§1) Hybrid B6D2F1 (C57BL/6×DBA/2) and outbred CF-1 female mice, 8-12 weeks of age, were used as oocyte donors. […] Females were induced to superovulate by intraperitoneal injection of 5 1U of pregnant mare serum gonadotropin (PMSG, Calbiochem) followed 48 h later by 5 1U of human chorionic gonadotropin (hCG, Calbiochem). MII oocytes were collected from oviducts 16-17 h after hCG administration in Hepes-buffered KSOM (H-KSOM, Specialty Media). Cumulus cells were dispersed by incubation in 150 units/ml of bovine testicular hyaluronidase (Sigma) in H-KSOM at 37° C. for 5 min. Cumulus-free oocytes were then washed three times in fresh H-KSOM and immediately activated.
(§2) Oocytes were parthenogenetically activated by a 5-min exposure to freshly prepared 7% (v/v) ethanol in H-KSOM at 37° C. and then washed twice in H-KSOM. Removal of oocytes from ethanol was considered as time zero post-activation (p.a.). To monitor meiotic progression, activated control oocytes (EtOH groups) were cultured for up to 2 h and 15 min and fixed at 30 min intervals, starting 45 min p.a. Culture of activated oocytes was at 37° C. under 5% COZ in air in KSOM medium containing 1 mg/ml BSA and amino acids (16; Specialty Media).
(§3) Fixed oocytes were stored until processing at 4 C. in a PBS blocking solution containing 1% BSA, 0.2% powdered milk, 2% normal goat serum, 0.1 M glycine, 0.2% sodium azide and 0.01% Triton X-100.
A triple labeling protocol was used for the detection of microtubules, microfilaments and chromatin by fluorescence microscopy. Oocytes were first incubated for 1 h at 37° C. in a mixture of mouse monoclonal anti a-tubulin and anti (3-tubulin antibodies (Sigma) at a 1:1000 final dilution. After several washes in 0.1% polyvinylpyrrolidone (PVP)/PBS at room temperature, oocytes were incubated at 37° C. in PBS blocking solution for 30 min and then in a 1:150 dilution of a donkey antimouse fluorescein-conjugated IgG (Jackson ImmunoResearch) for 45 min at 37° C. Oocytes were washed again several times in 0.1% PVP/PBS and incubated at 37° C. for 30 min in 10 units/ml of Texas Red-conjugated phalloidin (Molecular Probes) to stain actin filaments. Finally, after extensive washing in 0.1% PVP/PBS, oocytes were incubated at room temperature for 15 min in 10 μLg/ml Hoechst 33258 (Molecular Probes) and mounted in 50% glycerol/PBS containing 25 mg/ml sodium azide.
Labeled oocytes were examined using a Zeiss IM-35 inverted epi-fluorescence microscope fitted with filters selective for Hoechst, fluorescene and Texas Red and a 50 W mercury lamp. Selected images were acquired using a Photometrics Cool Snap CCD camera (Roper Scientific Inc., Trenton, N.J.) running on Metamorph software (version 5.0, Universal Imaging Corp., Downington, Pa.).
Data were analyzed by x^2 test or Fisher's exact test. A probability value of P<0.05 was considered to be statistically significant.
In vivo ovulated mouse oocytes (B6D2F1, n-959; CF 1, n=999) and in vitro matured goat oocytes (n-163) were denuded activated (7% ethanol) and incubated for up to 3.5 hr in KSOM.

[2] = test system: bovine oocytes; assay: Induced enucleation (IE) of activated bovine oocytes by demecolcine; format: cell-based
[3] = test system: B6D2F1 and CF-1 mouse oocytes; remark: listed apart in the source
Experimental: as §1, §2, §3
(§4) A triple labeling protocol was used for the detection of microtubules, microfilaments and chromatin by fluorescence microscopy. […]
(§5) Labeled oocytes were examined using a Zeiss IM-35 inverted epi-fluorescence microscope fitted with filters selective for Hoechst, fluorescene and Texas Red and a 50 W mercury lamp. […]
(§6) Data were analyzed by x^2 test or Fisher's exact test. […]

[4] = test system: bovine oocytes / NT embryos; assay: In vitro development (7 days) of bovine NT embryos / parthenotes prepared with demecolcine; format: cell-based; details: for cleavage rate / morula/blastocyst rate: 7 days culture
Experimental: Progress has continued with experiments designed to compare in vitro development of control embryos (parthenotes) with that of reconstructed NT embryos prepared by conventional NT, telophase NT, IE and a novel simultaneous IE-NT paradigm (SIE/NT; see Table 1 below). As in all previous experiments, abattoir-sourced oocytes were obtained having been submitted to 26 h of maturation in ACM medi a @5%CO2 in air. Oocytes were denuded (enzyme/vortex) and activated (5 μM ionomyciin for 5 min, +/−CHX). See Example 2 for detail on methods. […] In the case of SIE/NT, donor karyoplasts (fibroblasts) were injected immediately prior to or immediately after activation. In vitro embryo development was evaluated over a period of 7 days.

[5] = test system: goat oocytes
Experimental: This study was designed to characterize the kinetics and progressive phenotypes observed during induced enucleation (IE) of activated mouse and goat oocytes. In vivo ovulated mouse oocytes (B6D2F1, n-959; CF 1, n=999) and in vitro matured goat oocytes (n-163) were denuded activated (7% ethanol) and incubated for up to 3.5 hr in KSOM. […] At selected time points oocytes (n=11.50) were fixed/extracted and processed for immunofluorescence microscopy to document activation and meiotic progression based on spindle (microtubules), chromatin (H33258) and polar body (PB. microfilaments) phenotypes.

[6] = test system: B6D2F1 and CF-1 mouse oocytes; assay: Complete second polar body extrusion in ethanol-activated mouse oocytes treated with demecolcine; format: cell-based; details: demecolcine for only 15, 30 or 45 min, compared with continuous exposure; preliminary, unpublished
Experimental: as §1
Oocytes were parthenogenetically activated by a 5-min exposure to freshly prepared 7% (v/v) ethanol in H-KSOM at 37° C. and then washed twice in H-KSOM. Removal of oocytes from ethanol was considered as time zero post-activation (p.a.). […]
as §4, §5, §6

[7] = IE group: fibroblast nuclei injected into IE cytoplasts 1.5-3 hpa
[8] = Induced Enucleation (IE): demecolcine 0.4 μg/ml 1.5-5 h p.a., nuclei injected 1.5-3 h p.a.
[9] = Simultaneous IE-NT (SIE/NT): karyoplasts injected immediately prior to or after activation
[10] = parthenogenetically activated and DM treated oocytes (control group)

In the case of `CN[C@H]1CCc2cc(OC)c(OC)c(OC)c2-c2ccc(OC)c(=O)cc21` [demecolcine], the “enucleation rates of oocytes that completed second PB extrusion” value ([1]; CF-1, four treatments (onset 0-15 min p.a.), all time-points combined) was roughly 80%, the “rates of oocyte enucleation after short exposure” value ([1]; demecolcine for only 15, 30 or 45 min, compared with continuous exposure, preliminary, unpublished) was “reduced” and the “maximum IE rates” value ([1]; mouse oocytes exposed to demecolcine immediately after activation, strain-dependent) was 23-100%. For the same molecule, the “time required for induced enucleation” value ([1]; murine oocytes) was “about 1.5 hours”, the induced enucleation rate ([1]; murine oocytes, about 1.5 hours) was “greater than 50%” and the “maximum rate of IE” value ([2]; DM 0.4 μg/ml between 1.5 and 5hpa, at 5hpa) was 91%. For the same molecule, the IE rates ([2]; DM 0.4 μg/ml, varied onset and duration, at 5hpa) was 60-91%, the induced enucleation rate ([2]; bovine oocytes, about 5 hours post-activation) was “greater than 80%” and the “time required for induced enucleation” value ([2]; bovine oocytes, post-activation) was “about 5 hours”. The “oocytes showing complete spindle rotation” value ([3]; CF-1 and B6D2F1 treated oocytes, all treatments, 135 min p.a.) was 0-9.6%, the “oocytes in which spindle rotation is completed” value ([3]; demecolcine treated oocytes, both strains) was “less than 10%” and the “time after onset of treatment at which effect on the meiotic spindle was evident” value ([3]; smaller spindles, lower MT density than untreated activated oocytes) was 15 min. The cleavage rate [4, 7] was 48%, the morula/blastocyst rate [4, 7] was 27% and the Blastocyst [4, 8] was 16%. The Cleavage [4, 8] was 49%, the Fragmented [4, 8] was 20% and the Morula [4, 8] was 17%. For the same molecule, the Blastocyst [4, 9] was 25%, the Cleavage [4, 9] was 54% and the Fragmented [4, 9] was 18%. The cleavage rate [4, 10] was 49%, the morula/blastocyst rate [4, 10] was 30% and the “time required for induced enucleation” value [5] was “about 5 hours”. The induced enucleation rate ([5]; 5 hours) was “greater than 80%” and the “rates of second PB extrusion after short exposure” value [6] was “slightly higher”.
